Experimental findings from patent publication US20240018140A1, “MODIFIED IMIDAZOPYRIDINES AS GLUCOSYLCERAMIDE SYNTHASE INHIBITORS” (Merck Sharp & Dohme LLC, priority 2020, published 2024) are described below.

glucosylceramide synthase (GCS), sequence (Q16739 whole entry): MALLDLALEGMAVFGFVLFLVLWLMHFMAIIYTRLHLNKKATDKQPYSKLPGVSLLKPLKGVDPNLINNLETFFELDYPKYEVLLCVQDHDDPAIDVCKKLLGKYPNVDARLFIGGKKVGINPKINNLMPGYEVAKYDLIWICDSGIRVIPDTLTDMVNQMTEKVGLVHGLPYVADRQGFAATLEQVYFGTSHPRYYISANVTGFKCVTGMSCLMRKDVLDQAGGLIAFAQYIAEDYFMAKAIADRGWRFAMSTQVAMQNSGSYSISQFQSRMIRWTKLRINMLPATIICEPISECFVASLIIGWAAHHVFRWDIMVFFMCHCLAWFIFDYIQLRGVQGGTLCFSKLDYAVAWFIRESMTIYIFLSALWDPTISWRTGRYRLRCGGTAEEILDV

This experiment addresses glucosylceramide synthase (GCS) (Homo sapiens (Human), UniProt Q16739). As to the kind of experiment: UDP-Glo glucosylceramide synthase biochemical assay. The following applies: endogenous GCS in Golgi preparations from human A375 malignant melanoma skin cells; C6 ceramide and UDP-glucose substrates; 20 h incubation; UDP detected by luminescence. An excerpt: UDP-Glo™ Glucosylceramide Synthase Biochemical Assay
A UDP-Glo™ glucosylceramide synthase biochemical assay was utilized to evaluate the effect of test compounds on the activity of endogenous levels of GCS enzyme contained within Golgi preparations isolated from human A375 malignant melanoma skin cells. The UDP-Glo™ glucosylceramide synthase assay uses UDP-Glucose as a nucleotide-glycosyl donor and ceramide as substrate acceptor molecules. In the reaction, glucosylceramide synthase (GCS) transfers glucose from UDP-Glucose to ceramide. Glucosylceramide and UDP are released as products.
Using Promega's UDP-Glo™ Glycosyltransferase assay kit (Promega Corporation, Madison, WI, USA (Promega)), GCS activity was indirectly measured by detecting the amount of UDP produced. An aliquot of GCS enzyme (1.5 μg crude golgi preparation, total protein) and titrated test compound were aliquoted to each well and incubated for 30 minutes at room temperature. […] An equivalent volume of substrate mixture was then added to each well. Following a 20 h incubation at room temperature to allow for GCS turnover of substrate, an equal volume of UDP detection reagent (Promega) was added to each well and incubated for an additional 75 minutes at room temperature to simultaneously convert the accumulated UDP product into ATP and generate light in a luciferase reaction. The generated light was detected using a luminometer. […] luminescence values (RLUs) were normalized to mean “min” and “max” effects, as determined on each plate. “Min” was defined as the mean of the values of the wells treated with vehicle (DMSO) and which represent 0% inhibition; “max” was defined as the mean of the values of the wells treated with a reference inhibitor and which represent the 100% effect. Values for % Emax and EC50 were determined by best-fitting the normalized data to a curve in Activity Base along a four-parameter logistic nonlinear regression (4PL) model (based on the Levenberg-Marquardt algorithm and defined by the equation below): […]
where: n is 4PMin (bottom of the curve); m is 4PMax (top of the curve); i is IP (inflection point of curve); and p is slope. See Levenberg, K., “A Method for the Solution of Certain Problems in Least Squares”, Quart. Appl. Math. 2, (1944), pp 164-168 and Marquardt, D., “An Algorithm for Least Squares Estimation on Nonlinear Parameters”, SIAM J. Appl. Math. 11, (1963) pp 431-441.
Usually EC50 stands for the midpoint of the concentration-response curve. Low values mean higher potency in that assay, high ones lower potency in that assay. Molecule `O=C(NC12CCC(CO)(CC1)CC2)c1cn2cccc(-c3ccccc3OCC(F)(F)F)c2n1` [Compound 18, N-(4-(hydroxymethyl)bicyclo[2.2.2]octan-1-yl)-8-(2-(2,2,2-trifluoroethoxy)phenyl)imidazo[1,2-a]pyridine-2-carboxamide] showed an EC50 of 2.3 nM.

`CC(C)(CO)NC(=O)c1cn2cc(Cl)cc(-c3ccccc3OCC(F)(F)F)c2n1` [Compound 20, 6-chloro-N-(1-hydroxy-2-methylpropan-2-yl)-8-(2-(2,2,2-trifluoroethoxy)phenyl)imidazo[1,2-a]pyridine-2-carboxamide] had a concentration giving a half-maximal response (EC50) of 0.86 nM.

In turn, `O=C(NC1(CO)CCCC1)c1cn2cccc(-c3ccccc3OCC(F)(F)F)c2n1` [Compound 21, N-(1-(hydroxymethyl)cyclopentyl)-8-(2-(2,2,2-trifluoroethoxy)phenyl)imidazo[1,2-a]pyridine-2-carboxamide] had an EC50 of 11 nM.

Turning to `NC(CNC(=O)c1cn2cc(Cl)cc(-c3ccccc3OCC(F)(F)F)c2n1)C(F)(F)F` (stereo not drawn) [Compound 23, N-(2-amino-3,3,3-trifluoropropyl)-6-chloro-8-(2-(2,2,2-trifluoroethoxy)phenyl)imidazo[1,2-a]pyridine-2-carboxamide], the EC50 was found to be 10 nM.

`O=C(N[C@H]1CC[C@H](O)CC1)c1cn2cc(Cl)cc(-c3ccccc3OCC(F)(F)F)c2n1` [Compound 24, 6-chloro-N-(trans-4-hydroxycyclohexyl)-8-(2-(2,2,2-trifluoroethoxy)phenyl)imidazo[1,2-a]pyridine-2-carboxamide] registered an EC50 of 0.36 nM.

Molecule `O=C(NC12CCC(O)(CC1)C2)c1cn2cc(Cl)cc(-c3ccccc3OCC(F)(F)F)c2n1` [Compound 25, 6-chloro-N-(4-hydroxybicyclo[2.2.1]heptan-1-yl)-8-(2-(2,2,2-trifluoroethoxy)phenyl)imidazo[1,2-a]pyridine-2-carboxamide] registered an EC50 of 2.5 nM.

Molecule `CC1(O)CCC(NC(=O)c2cn3cc(F)cc(-c4ccccc4OCC(F)(F)F)c3n2)CC1` (stereo not drawn) [Compound 26, cis or trans-6-fluoro-N-(4-hydroxy-4-methylcyclohexyl)-8-(2-(2,2,2-trifluoroethoxy)phenyl)imidazo[1,2-a]pyridine-2-carboxamide] registered a half-maximal effective concentration (EC50) of 0.79 nM.

The molecule `O=C(N[C@H]1CC[C@@H](CO)CC1)c1cn2cc(F)cc(-c3ccccc3OCC(F)(F)F)c2n1` [Compound 27, 6-fluoro-N-(cis-4-(hydroxymethyl)cyclohexyl)-8-(2-(2,2,2-trifluoroethoxy)phenyl)imidazo[1,2-a]pyridine-2-carboxamide] returned a 50% effective concentration (EC50) of 1.3 nM.

`O=C(NC1CCCC1)c1cn2cc(F)cc(-c3ccccc3OCC(F)(F)F)c2n1` [Compound 28, N-cyclopentyl-6-fluoro-8-(2-(2,2,2-trifluoroethoxy)phenyl)imidazo[1,2-a]pyridine-2-carboxamide] had a half-maximal effective concentration (EC50) of 7.4 nM.

With `O=C(N[C@H]1CC[C@H](CO)CC1)c1cn2cccc(-c3ccccc3OCC(F)(F)F)c2n1` [Compound 29, N-(trans-4-(hydroxymethyl)cyclohexyl)-8-(2-(2,2,2-trifluoroethoxy)phenyl)imidazo[1,2-a]pyridine-2-carboxamide], the EC50 came to 2.1 nM.

Turning to `COc1ccc(Cl)cc1-c1cccn2cc(C(=O)NC34CCC(O)(CC3)C4)nc12` [Compound 30, 8-(5-chloro-2-methoxyphenyl)-N-(4-hydroxybicyclo[2.2.1]heptan-1-yl)imidazo[1,2-a]pyridine-2-carboxamide], the EC50 is 5.6 nM.

`O=C(N[C@H]1CC[C@H](O)CC1)c1nc2c(-c3ccccc3OCC(F)(F)F)cccn2c1F` [Compound 32, 3-fluoro-N-(trans-4-hydroxycyclohexyl)-8-(2-(2,2,2-trifluoroethoxy)phenyl)imidazo[1,2-a]pyridine-2-carboxamide] gave an EC50 of 47 nM.

As for `CC(C)(NC(=O)c1nc2c(-c3ccccc3OCC(F)(F)F)cccn2c1F)C(F)(F)F` [Compound 33, 3-fluoro-N-(1,1,1-trifluoro-2-methylpropan-2-yl)-8-(2-(2,2,2-trifluoroethoxy)phenyl)imidazo[1,2-a]pyridine-2-carboxamide], a half-maximal effect (EC50) was put at 14 nM.

Molecule `N#C[C@@]1(NC(=O)c2cn3cccc(-c4ccccc4OCC(F)(F)F)c3n2)CCOC1` [Compound 34, (S)-N-(3-cyanotetrahydrofuran-3-yl)-8-(2-(2,2,2-trifluoroethoxy)phenyl)imidazo[1,2-a]pyridine-2-carboxamide] displayed a 50% effective concentration (EC50) of 5.9 nM.

For `O=C(N[C@H]1CC[C@H](O)CC1)c1cn2cc(C(F)(F)F)cc(-c3ccccc3OCC(F)(F)F)c2n1` [Compound 36, N-(trans-4-hydroxycyclohexyl)-8-(2-(2,2,2-trifluoroethoxy)phenyl)-6-(trifluoromethyl)imidazo[1,2-a]pyridine-2-carboxamide], the EC50 is 2.1 nM.

For `CC(C)(CO)NC(=O)c1cn2cc(C(F)(F)F)cc(-c3ccccc3OCC(F)(F)F)c2n1` [Compound 37, N-(1-hydroxy-2-methylpropan-2-yl)-8-(2-(2,2,2-trifluoroethoxy)phenyl)-6-(trifluoromethyl)imidazo[1,2-a]pyridine-2-carboxamide], a half-maximal effect (EC50) was put at 4.5 nM.

In the case of `N#Cc1cc(-c2ccccc2OCC(F)(F)F)c2nc(C(=O)N[C@H]3CC[C@H](O)CC3)cn2c1` [Compound 39, 6-cyano-N-(trans-4-hydroxycyclohexyl)-8-(2-(2,2,2-trifluoroethoxy)phenyl)imidazo[1,2-a]pyridine-2-carboxamide], a half-maximal response (EC50) required 14 nM.

In turn, `O=C(N[C@H]1C[C@@H](CO)C1)c1cn2cccc(-c3ccccc3OCC(F)(F)F)c2n1` [Compound 40] came in with a concentration giving a half-maximal response (EC50) of 6.7 nM.

Take `CC(C)(NC(=O)c1cn2cc(F)cc(-c3ccccc3OCC(F)(F)F)c2n1)C(F)(F)F` [Compound 41, 6-fluoro-N-(1,1,1-trifluoro-2-methylpropan-2-yl)-8-(2-(2,2,2-trifluoroethoxy)phenyl)imidazo[1,2-a]pyridine-2-carboxamide]: a half-maximal effect (EC50) was put at 1.7 nM.

Turning to `O=C(N[C@H]1CCCOC1)c1cn2cc(C(F)(F)F)cc(-c3ccccc3OCC(F)(F)F)c2n1` [Compound 42, (S)-N-(tetrahydro-2H-pyran-3-yl)-8-(2-(2,2,2-trifluoroethoxy)phenyl)-6-(trifluoromethyl)imidazo[1,2-a]pyridine-2-carboxamide], the 50% effective concentration (EC50) was found to be 2.5 nM.

As for `COc1cc(-c2ccccc2OCC(F)(F)F)c2nc(C(=O)NC(C)(C)C(F)(F)F)cn2c1` [Compound 43, 6-methoxy-N-(1,1,1-trifluoro-2-methylpropan-2-yl)-8-(2-(2,2,2-trifluoroethoxy)phenyl)imidazo[1,2-a]pyridine-2-carboxamide], the midpoint of the response, the EC50, lay at 2.1 nM.

The molecule `CC(C)(NC(=O)c1cn2cc(C#N)cc(-c3ccccc3OCC(F)(F)F)c2n1)C(F)(F)F` [Compound 44, 6-cyano-N-(1,1,1-trifluoro-2-methylpropan-2-yl)-8-(2-(2,2,2-trifluoroethoxy)phenyl)imidazo[1,2-a]pyridine-2-carboxamide] had an EC50 of 8.3 nM.

For the molecule `O=C(N[C@@H]1COC[C@@H]1F)c1cn2cc(Cl)cc(-c3ccccc3OCC(F)(F)F)c2n1` [Compound 45, 6-chloro-N-((3R,4R)-4-fluorotetrahydrofuran-3-yl)-8-(2-(2,2,2-trifluoroethoxy)phenyl)imidazo[1,2-a]pyridine-2-carboxamide], a half-maximal effect (EC50) was put at 4.3 nM.

The molecule `O=C(N[C@H]1COC[C@@H]1F)c1cn2cc(Cl)cc(-c3ccccc3OCC(F)(F)F)c2n1` [Compound 46, 6-chloro-N-((3S,4R)-4-fluorotetrahydrofuran-3-yl)-8-(2-(2,2,2-trifluoroethoxy)phenyl)imidazo[1,2-a]pyridine-2-carboxamide] gave an EC50 of 4 nM.

Consider `O=C(NC12CC(CO)(C1)C2)c1cn2cccc(-c3ccccc3OCC(F)(F)F)c2n1` [Compound 47, N-(3-(hydroxymethyl)bicyclo[1.1.1]pentan-1-yl)-8-(2-(2,2,2-trifluoroethoxy)phenyl)imidazo[1,2-a]pyridine-2-carboxamide], for which the concentration for a half-maximal effect (EC50) stood at 9.2 nM.

`O=C(c1cn2cccc(-c3ccccc3OCC(F)(F)F)c2n1)N1CC2CC1(CF)C2` [Compound 48, (1-(fluoromethyl)-2-azabicyclo[2.1.1]hexan-2-yl)(8-(2-(2,2,2-trifluoroethoxy)phenyl)imidazo[1,2-a]pyridin-2-yl)methanone] yielded a concentration for a half-maximal effect (EC50) of 4.5 nM.

Molecule `CN1CC2(C1)CN(C(=O)c1cn3cccc(-c4ccccc4OCC(F)(F)F)c3n1)CCO2` [Compound 49, (2-methyl-5-oxa-2,8-diazaspiro[3.5]nonan-8-yl)(8-(2-(2,2,2-trifluoroethoxy)phenyl)imidazo[1,2-a]pyridin-2-yl)methanone] had an EC50 of 18 nM.
